Our source for the pXC50, % of inhibition and % of control values is ChEMBL document CHEMBL5465560, “Selectivity Literature for EUbOPEN Chemogenomic Library” (2024).

A value given as a limit tells only on which side of the number the result lay.

Assay [1] addresses T1, Muscarinic acetylcholine receptor M1 (Homo sapiens) (UniProt P11229).
T1 sequence (whole entry): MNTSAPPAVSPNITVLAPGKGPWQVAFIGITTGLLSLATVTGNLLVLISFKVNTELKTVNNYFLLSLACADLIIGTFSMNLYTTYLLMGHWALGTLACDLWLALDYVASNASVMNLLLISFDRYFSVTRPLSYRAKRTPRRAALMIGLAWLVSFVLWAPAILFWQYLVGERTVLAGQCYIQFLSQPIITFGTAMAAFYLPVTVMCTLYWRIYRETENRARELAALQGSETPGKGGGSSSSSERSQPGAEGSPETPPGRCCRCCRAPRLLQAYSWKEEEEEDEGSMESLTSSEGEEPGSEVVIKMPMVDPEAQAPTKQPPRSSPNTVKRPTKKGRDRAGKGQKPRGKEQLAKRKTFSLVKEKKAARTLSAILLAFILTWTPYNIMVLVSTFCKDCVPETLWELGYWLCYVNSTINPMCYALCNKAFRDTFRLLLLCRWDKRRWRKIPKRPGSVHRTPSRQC
Put plainly: Selectivity interaction (Panel of kinases, GPCRs, ion channels and transporters (enzymatic assay)) EUB0000266bCl CHRM1.

For assay [2], the target named is Tyrosine-protein kinase BTK (Homo sapiens, UniProt Q06187). Put plainly: Selectivity interaction (Upstate Kinase Profiler service (Millipore)) EUB0000056c BTK. The note with it: at 1 µM.
In assay [3] the target is Vascular endothelial growth factor receptor 1 (Homo sapiens) (UniProt P17948). Nature of the assay: Selectivity interaction (Kinase panel (Z-LYTE Assay)) EUB0001632a FLT1. The note with it: at 10 µM.
Vascular endothelial growth factor receptor 1 (Homo sapiens), sequence (P17948 whole entry): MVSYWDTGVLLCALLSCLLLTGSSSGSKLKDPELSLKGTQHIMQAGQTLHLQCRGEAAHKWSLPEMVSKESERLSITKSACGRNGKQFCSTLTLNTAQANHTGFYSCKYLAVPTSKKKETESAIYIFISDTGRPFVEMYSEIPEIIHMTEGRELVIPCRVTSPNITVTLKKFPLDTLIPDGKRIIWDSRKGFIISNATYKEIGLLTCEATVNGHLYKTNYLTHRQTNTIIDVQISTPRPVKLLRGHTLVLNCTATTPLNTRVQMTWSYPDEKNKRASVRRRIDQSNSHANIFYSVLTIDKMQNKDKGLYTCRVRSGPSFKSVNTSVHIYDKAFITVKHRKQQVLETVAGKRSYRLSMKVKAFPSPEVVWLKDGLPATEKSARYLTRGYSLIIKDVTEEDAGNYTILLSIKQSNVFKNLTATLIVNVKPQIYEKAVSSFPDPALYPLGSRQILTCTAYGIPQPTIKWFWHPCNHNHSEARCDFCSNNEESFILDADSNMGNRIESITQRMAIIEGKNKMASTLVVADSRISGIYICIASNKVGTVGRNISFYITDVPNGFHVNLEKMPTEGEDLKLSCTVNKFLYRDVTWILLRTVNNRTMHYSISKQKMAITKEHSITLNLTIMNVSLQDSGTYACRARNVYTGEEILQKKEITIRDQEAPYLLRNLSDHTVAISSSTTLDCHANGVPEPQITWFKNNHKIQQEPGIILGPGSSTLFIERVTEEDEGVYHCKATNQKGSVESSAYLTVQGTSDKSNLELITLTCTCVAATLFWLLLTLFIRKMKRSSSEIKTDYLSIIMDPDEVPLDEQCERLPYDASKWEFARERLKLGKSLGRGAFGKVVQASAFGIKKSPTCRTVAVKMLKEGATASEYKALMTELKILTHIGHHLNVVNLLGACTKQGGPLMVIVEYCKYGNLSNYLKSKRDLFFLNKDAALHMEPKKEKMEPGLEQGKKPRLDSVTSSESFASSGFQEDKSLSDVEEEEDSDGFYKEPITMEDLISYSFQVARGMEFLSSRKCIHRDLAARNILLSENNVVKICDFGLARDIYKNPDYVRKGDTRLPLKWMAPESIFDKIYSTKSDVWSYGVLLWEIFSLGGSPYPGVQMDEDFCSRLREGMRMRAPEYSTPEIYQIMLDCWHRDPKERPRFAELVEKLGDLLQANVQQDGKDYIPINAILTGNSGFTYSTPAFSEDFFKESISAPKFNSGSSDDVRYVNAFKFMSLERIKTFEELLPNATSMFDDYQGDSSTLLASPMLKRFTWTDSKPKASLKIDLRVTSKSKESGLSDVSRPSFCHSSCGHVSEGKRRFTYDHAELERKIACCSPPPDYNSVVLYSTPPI
The target in assay [4] is Tyrosine-protein kinase Lyn (Homo sapiens, UniProt P07948). Put plainly: Selectivity interaction (ActivX KiNativ screen (kinase selectivity in THP-1 cell lysates)) EUB0000639a LYN. The assay is classed as subcellular. The note with it: lysate, at 0.04 µM.
Tyrosine-protein kinase Lyn, sequence (P07948 2-512 limits assumed): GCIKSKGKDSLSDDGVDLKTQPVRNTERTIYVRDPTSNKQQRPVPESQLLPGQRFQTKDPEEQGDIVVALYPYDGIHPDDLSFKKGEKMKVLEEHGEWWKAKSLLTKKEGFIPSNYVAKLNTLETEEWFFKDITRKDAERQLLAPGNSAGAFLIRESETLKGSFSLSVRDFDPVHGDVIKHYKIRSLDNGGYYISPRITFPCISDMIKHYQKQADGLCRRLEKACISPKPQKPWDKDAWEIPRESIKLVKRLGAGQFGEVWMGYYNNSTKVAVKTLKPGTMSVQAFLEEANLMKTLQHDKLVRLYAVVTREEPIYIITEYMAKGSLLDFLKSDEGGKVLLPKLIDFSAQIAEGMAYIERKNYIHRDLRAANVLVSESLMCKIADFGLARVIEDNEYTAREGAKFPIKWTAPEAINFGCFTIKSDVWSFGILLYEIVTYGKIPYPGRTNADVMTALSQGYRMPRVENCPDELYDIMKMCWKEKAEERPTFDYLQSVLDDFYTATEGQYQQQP
In assay [5] the target is Proto-oncogene tyrosine-protein kinase ROS (Homo sapiens) (UniProt P08922). Nature of the assay: Selectivity interaction (Kinase panel (Invitrogen)) EUB0000639a ROS1. The note with it: at 200 nM.
Proto-oncogene tyrosine-protein kinase ROS (Homo sapiens), sequence (P08922 whole entry): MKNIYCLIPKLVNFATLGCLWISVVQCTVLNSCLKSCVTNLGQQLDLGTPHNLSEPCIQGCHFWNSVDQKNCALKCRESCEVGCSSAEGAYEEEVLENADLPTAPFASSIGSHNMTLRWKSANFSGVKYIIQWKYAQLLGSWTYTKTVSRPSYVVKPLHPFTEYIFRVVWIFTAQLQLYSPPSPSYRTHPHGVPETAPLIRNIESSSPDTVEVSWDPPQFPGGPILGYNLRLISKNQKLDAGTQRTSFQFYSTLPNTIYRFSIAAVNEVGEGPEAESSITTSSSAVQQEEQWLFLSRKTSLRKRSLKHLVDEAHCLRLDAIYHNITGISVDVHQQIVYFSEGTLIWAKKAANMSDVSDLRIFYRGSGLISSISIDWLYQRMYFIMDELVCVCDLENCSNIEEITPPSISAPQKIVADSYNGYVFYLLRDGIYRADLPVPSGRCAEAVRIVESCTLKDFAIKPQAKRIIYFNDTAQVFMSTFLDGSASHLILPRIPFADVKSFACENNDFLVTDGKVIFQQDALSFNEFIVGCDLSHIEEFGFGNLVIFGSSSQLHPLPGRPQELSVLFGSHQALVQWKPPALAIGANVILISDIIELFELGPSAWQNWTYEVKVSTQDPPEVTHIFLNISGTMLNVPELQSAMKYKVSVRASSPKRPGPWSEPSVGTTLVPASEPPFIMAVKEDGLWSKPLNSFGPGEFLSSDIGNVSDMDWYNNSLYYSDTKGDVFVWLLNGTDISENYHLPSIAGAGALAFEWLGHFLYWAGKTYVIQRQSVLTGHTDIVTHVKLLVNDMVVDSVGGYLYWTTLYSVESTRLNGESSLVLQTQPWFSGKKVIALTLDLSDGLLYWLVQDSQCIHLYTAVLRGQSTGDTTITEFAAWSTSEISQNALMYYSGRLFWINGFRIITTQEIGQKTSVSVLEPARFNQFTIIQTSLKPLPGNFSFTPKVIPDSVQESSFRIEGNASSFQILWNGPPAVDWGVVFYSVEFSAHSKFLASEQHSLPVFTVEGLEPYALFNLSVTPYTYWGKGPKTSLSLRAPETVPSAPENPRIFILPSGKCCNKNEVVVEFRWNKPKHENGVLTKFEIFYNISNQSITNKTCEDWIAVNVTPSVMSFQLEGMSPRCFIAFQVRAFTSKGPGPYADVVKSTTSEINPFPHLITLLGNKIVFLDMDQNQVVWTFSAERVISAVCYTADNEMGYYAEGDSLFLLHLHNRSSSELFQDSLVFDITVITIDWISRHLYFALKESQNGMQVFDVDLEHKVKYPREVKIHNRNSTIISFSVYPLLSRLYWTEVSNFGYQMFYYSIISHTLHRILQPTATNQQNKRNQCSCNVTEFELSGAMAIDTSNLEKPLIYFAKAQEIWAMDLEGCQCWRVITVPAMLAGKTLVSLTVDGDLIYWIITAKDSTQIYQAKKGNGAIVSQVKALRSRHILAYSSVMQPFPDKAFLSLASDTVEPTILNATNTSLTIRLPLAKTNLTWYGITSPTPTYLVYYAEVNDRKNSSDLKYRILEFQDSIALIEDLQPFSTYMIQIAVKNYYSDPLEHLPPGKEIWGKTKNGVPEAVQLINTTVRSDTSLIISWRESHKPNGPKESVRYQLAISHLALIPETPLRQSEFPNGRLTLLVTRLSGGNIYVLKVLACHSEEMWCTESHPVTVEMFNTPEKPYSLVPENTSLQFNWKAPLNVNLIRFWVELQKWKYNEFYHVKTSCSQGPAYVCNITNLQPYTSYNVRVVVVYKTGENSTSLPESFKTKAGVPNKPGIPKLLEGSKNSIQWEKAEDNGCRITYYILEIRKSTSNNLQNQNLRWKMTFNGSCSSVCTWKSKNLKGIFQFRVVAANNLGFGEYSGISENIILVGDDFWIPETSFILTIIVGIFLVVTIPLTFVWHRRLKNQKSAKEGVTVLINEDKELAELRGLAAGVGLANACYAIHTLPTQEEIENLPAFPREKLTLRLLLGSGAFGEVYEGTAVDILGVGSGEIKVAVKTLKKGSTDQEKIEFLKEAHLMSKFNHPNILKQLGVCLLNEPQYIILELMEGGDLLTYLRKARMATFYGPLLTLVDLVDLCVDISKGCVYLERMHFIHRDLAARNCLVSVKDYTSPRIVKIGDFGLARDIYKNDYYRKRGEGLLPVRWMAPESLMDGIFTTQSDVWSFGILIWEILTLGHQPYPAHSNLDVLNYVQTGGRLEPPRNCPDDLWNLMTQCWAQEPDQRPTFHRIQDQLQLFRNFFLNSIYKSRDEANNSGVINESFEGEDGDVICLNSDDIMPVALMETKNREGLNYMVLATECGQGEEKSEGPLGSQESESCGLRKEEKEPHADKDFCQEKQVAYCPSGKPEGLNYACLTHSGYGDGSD
Assay [6] addresses T2, Serine/threonine-protein kinase ULK1 (Homo sapiens) (UniProt O75385).
T2 sequence (whole entry): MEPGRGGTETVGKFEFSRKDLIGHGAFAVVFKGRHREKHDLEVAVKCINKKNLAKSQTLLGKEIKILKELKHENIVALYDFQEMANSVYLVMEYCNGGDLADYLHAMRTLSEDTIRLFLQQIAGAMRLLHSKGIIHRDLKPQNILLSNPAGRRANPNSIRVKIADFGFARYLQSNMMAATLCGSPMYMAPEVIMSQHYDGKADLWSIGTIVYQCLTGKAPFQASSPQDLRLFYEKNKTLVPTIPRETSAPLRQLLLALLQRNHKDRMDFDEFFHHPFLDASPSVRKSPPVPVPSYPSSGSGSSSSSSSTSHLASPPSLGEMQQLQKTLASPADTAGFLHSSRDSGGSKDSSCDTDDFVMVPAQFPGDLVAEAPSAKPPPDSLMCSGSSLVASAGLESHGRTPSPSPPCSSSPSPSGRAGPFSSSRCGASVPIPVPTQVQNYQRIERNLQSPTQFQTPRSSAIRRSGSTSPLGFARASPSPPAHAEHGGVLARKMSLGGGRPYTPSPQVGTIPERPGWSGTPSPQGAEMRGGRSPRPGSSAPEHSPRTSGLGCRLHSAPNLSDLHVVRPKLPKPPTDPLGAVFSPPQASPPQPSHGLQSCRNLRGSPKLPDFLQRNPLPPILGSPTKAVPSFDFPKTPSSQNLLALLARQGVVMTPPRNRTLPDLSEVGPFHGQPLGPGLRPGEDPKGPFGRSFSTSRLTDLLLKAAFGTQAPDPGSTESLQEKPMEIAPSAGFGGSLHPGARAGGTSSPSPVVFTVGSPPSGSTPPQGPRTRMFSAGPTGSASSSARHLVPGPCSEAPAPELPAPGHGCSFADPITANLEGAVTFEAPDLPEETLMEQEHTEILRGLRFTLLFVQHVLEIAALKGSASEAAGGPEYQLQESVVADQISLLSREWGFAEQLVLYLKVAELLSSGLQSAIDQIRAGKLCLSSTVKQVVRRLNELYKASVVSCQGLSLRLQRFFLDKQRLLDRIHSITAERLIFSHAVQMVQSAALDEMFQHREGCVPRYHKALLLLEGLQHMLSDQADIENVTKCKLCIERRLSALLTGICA
Put plainly: Selectivity interaction (ActivX KiNativ screen (kinase selectivity in THP-1 cell lysates)) EUB0000639a ULK1. The note with it: lysate, at 0.2 µM. The class given is subcellular.

The target in assay [7] is Dual specificity protein kinase CLK2 (Homo sapiens, UniProt P49760). Put plainly: Selectivity interaction (ActivX KiNativ screen (kinase selectivity in THP-1 cell lysates)) EUB0000639a CLK2. The note with it: lysate. The assay is classed as subcellular.
Dual specificity protein kinase CLK2, sequence (P49760 whole entry, looked up): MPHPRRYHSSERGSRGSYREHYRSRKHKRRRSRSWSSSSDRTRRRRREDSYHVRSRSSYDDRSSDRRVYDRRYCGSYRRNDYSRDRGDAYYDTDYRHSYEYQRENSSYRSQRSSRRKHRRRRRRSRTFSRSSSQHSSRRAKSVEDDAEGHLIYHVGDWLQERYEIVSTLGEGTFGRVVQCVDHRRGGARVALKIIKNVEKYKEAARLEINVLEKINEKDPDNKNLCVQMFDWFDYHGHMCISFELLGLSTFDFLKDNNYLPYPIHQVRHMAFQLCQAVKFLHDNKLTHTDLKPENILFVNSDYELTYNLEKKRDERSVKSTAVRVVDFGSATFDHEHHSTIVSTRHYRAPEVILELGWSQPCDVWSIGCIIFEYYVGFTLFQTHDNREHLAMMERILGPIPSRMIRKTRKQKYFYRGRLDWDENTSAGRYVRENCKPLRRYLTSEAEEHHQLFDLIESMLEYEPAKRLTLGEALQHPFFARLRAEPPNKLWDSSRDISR
Assay [8] addresses T3, Scaffold protein ILK (Homo sapiens) (UniProt Q13418).
T3 sequence (whole entry): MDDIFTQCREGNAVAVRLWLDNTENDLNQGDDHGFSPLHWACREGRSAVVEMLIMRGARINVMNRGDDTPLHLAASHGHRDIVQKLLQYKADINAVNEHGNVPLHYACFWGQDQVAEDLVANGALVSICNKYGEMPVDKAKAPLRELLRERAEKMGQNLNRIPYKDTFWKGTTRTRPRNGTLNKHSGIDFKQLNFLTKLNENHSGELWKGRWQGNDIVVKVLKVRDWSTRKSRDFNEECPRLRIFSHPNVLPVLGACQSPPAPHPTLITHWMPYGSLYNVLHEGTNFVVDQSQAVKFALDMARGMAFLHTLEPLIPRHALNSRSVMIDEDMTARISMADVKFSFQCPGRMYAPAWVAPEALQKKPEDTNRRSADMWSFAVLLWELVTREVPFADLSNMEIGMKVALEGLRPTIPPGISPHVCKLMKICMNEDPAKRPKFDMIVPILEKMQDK
Put plainly: Selectivity interaction (ActivX KiNativ screen (kinase selectivity in THP-1 cell lysates)) EUB0000639a ILK. The note with it: lysate, at 0.01 µM. The class given is subcellular.

Regarding `CCn1c(-c2nc3cc(C(=O)N4CCCC(N)C4)ccc3n2C)cc2ccccc21` (configuration not stated), the pXC50 in assay [1] was less than 4.8 M.

Consider `Cc1ccc(-c2ccc3c(ccc4sc5c(c43)NC[C@@H](C)NC5=O)n2)cn1`, for which the % of inhibition in assay [2] is 6%.

Consider `Cn1cc(-n2cnc3c(NCc4nc5cc(Cl)c(Cl)cc5[nH]4)nc(N4CCOCC4)nc32)cn1`, for which, in assay [3], the % of control was found to be 1.04%.

Regarding `CC[C@@H]1[C@H](F)C(=O)N[C@@H]1COc1nccc2cc(C(N)=O)c(OC)cc12` [ZIMLOVISERTIB], the % of inhibition in assay [4] is -15.2%; in assay [5], 18.1%; in assay [6] it was -29.3%; in assay [7] (at 0.01 µM), 26.8%; in assay [7] (at 0.04 µM) it was 32.4%; in assay [7] (at 0.2 µM), 38.8%. Moreover, the results for the % of inhibition in assay [7] (at 1 µM), in assay [7] (at 5 µM) and in assay [8] were 14.3%, 19.9% and 3.1%, respectively.
